pIC50: −log10 of the molar value. Where two headings read alike, the source gives them in different places.
Key:
[1] = molecular target: T1, His tagged PTPN2 (TC45) protein (Homo sapiens, UniProt P17706); experiment: Mobility shift assay (MSA) for potency of PTPN2 inhibitors; type: biochemical
T1 construct: made in house
T1 sequence (P17706 with tags, fused parts or gaps isoform P17706-2): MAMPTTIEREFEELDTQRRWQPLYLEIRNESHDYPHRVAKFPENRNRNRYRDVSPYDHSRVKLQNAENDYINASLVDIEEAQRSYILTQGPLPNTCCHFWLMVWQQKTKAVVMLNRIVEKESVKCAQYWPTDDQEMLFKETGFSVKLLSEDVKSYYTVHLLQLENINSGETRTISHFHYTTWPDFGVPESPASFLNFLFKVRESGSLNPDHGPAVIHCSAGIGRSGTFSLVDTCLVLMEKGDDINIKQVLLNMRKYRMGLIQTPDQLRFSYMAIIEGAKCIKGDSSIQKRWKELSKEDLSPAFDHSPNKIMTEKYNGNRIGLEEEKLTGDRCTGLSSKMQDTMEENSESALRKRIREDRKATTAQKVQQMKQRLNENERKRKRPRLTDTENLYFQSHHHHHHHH
Procedure: Compound activity was determined using in house His tagged PTPN2 (TC45) protein (SEQ ID NO: 1) in an in vitro enzymatic reaction. The enzymatic assay used to determine activity was a mobility shift assay using a LabChip EZ Reader by Caliper Life Sciences. The enzymatic reaction was carried out in assay buffer (50 mM HEPES pH 7.5, 1 mM EGTA, 10 mM EDTA, 0.01% Tween® 20, and 2 mM DTT). The compounds were dispensed on a white 384 well ProxiPlate™ (PerkinElmer Catalog #6008289) plate using the Labcyte Echo at varying concentrations (12 point, 1:3 dilution). The enzyme (at 0.5 nM) was incubated with compound for 10 minutes at room temperature. Then the substrate (phosphorylated insulin receptor probe sequence: ((OG488)-(NH—CH2—CH2—O—CH2—CH2—O—CH2—CO)-T-R-D-I-(PY)-E-T-D-Y-Y-R-K-K-NH2) (SEQ ID NO: 2) was added at […] to the plates and incubated for another 10 minutes at room temperature. Finally, a quench solution (water and 4-bromo-3-(2-oxo-2-propoxyethoxy)-5-(3-{[1-(phenylmethanesulfonyl)piperidin-4-yl]amino}phenyl)thiophene-2-carboxylic acid) was added to the plates, which were then run on the EZ Reader (excitation 488 nm, emission 530 nm) to measure % conversion (the amount of phosphorylated substrate which was de-phosphorylated by PTPN2). […] The % inhibition was then used to calculate the IC50 values.

[2] = tested on: B16F10 mouse melanoma cells; experiment: B16F10 IFNγ-induced cellular growth inhibition assay; type: cell-based; settings: Mus musculus, B16-F10
Procedure: B16F10 mouse melanoma cells (ATCC Cat ^#CRL-6475, Manassas, Va.) were seeded at a density of 500 cells per well in a 384-well clear bottom plate (Corning Cat^# 3765, Corning, N.Y.) in 25 μL total volume of DMEM+10% FBS (Sigma Cat ^#D6429 and Sigma Cat ^#F4135, St. Louis, Mo.). Cells were allowed to adhere overnight at 37° C.+5% CO2. On the following day, 12.5 μL of mouse IFNγ (RD systems Cat485-MI/CF, Minneapolis, Minn.) was added to half of the plate (columns 13-24) at a concentration of 2 ng/mL for a final assay concentration of 0.5 ng/mL of IFNγ. Media only (12.5 μL of DMEM+10% FBS) was added to the remainder of the plate (columns 1-12). Next, compounds resuspended in DMSO (Sigma Cat ^#D2650) at 100 mM were diluted in semi-log dilutions in DMSO ranging from 100 mM to 0.001 mM and DMSO only controls were included. The compound/DMSO dilutions were further diluted 1:250 in DMEM+10% FBS, and 12.5 μL of these dilutions were added in triplicates to cells of both treatment arms (with and without IFNγ). Final compound concentrations ranged from 100 μM to 0.001 μM with a final DMSO concentration of 0.1%. Compounds were only dosed in the inner 240 wells, avoiding the outer 2-well perimeter of the plate to minimize edge effects. Finally, the plate was loaded into an IncuCyte® S3 Live Cell Analysis System (Essen Bioscience-Sartorius, Ann Arbor, Mich.) maintained in a 37° C.+5% CO2 incubator, allowed to equilibrate for 2 hours, and imaged every 6 hours for 5 days. Confluence over time for compound dilutions in the presence and absence of IFNγ was measured. Growth inhibition values were obtained when the “DMSO/no IFNγ” control reached confluence >95%. At these time points, the percent growth inhibition of each compound at the indicated concentration was calculated relative to the “DMSO/with IFNγ” control.

[3] = +0.5 ng/mL IFNγ, 33 μM compound, relative to DMSO control, read-out: % B16F10 growth inhibition (+0.5 ng/mL IFNγ) @ 33 μM
[4] = no IFNγ, 33 μM compound, read-out: % B16F10 growth inhibition (no IFNγ) @ 33 μM

SMILES | pIC50 ([1]; read-out: PTPN2 MSA IC50) | inhibition at 33 µM [2, 3] | inhibition at 33 µM [2, 4] | further results
N#C/C=C/c1ccc2cc(O)c(N3CC(=O)NS3(=O)=O)c(F)c2c1 [Compound 208, (2E)-3-[8-fluoro-6-hydroxy-7-(1,1,4-trioxo-1λ^6,2,5-thiadiazolidin-2-yl)naphthalen-2-yl]prop-2-enenitrile] | 8.00 to 9.00 | < 25% | < 25% | 
CNc1ccc2cc(O)c(N3CC(=O)NS3(=O)=O)c(F)c2c1 [Compound 107, 5-[1-fluoro-3-hydroxy-7-(methylamino)naphthalen-2-yl]-1λ^6,2,5-thiadiazolidine-1,1,3-trione] | 7.00 to 8.00 | 60 to 90% | < 25% | 
O=C1CN(c2c(O)cc3ccc(C4CN(C(=O)C5CC5)C4)cc3c2F)S(=O)(=O)N1 [Compound 207, 5-{7-[1-(cyclopropanecarbonyl)azetidin-3-yl]-1-fluoro-3-hydroxynaphthalen-2-yl}-1λ^6,2,5-thiadiazolidine-1,1,3-trione] | 8.00 to 9.00 | 25 to 59% | < 25% | 
COc1ccc2cc(O)c(N3CC(=O)NS3(=O)=O)cc2c1 [Compound X, reference compound] |  |  |  | pIC50 ([1]; Table 4, read-out: PTPN2 MSA IC50): 7.00 to 8.00; pIC50 ([1]; read-out: PTPN2 IC50): 7.16; inhibition at 33 µM ([2]; 33 μM, in the presence of IFNγ, read-out: growth inhibition in the presence of IFNγ compared to DMSO controls): < 25%; inhibition at 33 µM ([2]; Table 4, +0.5 ng/mL IFNγ, 33 μM, read-out: % B16F10 growth inhibition (+0.5 ng/mL IFNγ) @ 33 μM): < 25%; inhibition at 33 µM ([2]; Table 4, no IFNγ, 33 μM, read-out: % B16F10 growth inhibition (no IFNγ) @ 33 μM): < 25%
O=C1CN(c2c(O)cc3ccc(OCC(=O)N4CCCC4)cc3c2F)S(=O)(=O)N1 [Compound 283, 5-{1-fluoro-3-hydroxy-7-[2-oxo-2-(pyrrolidin-1-yl)ethoxy]naphthalen-2-yl}-1λ^6,2,5-thiadiazolidine-1,1,3-trione] | 8.00 to 9.00 | 25 to 59% | < 25% | 
O=C1CN(c2c(O)cc3ccc(OCCC4CC4)cc3c2F)S(=O)(=O)N1 [Compound 211, 5-[7-(2-cyclopropylethoxy)-1-fluoro-3-hydroxynaphthalen-2-yl]-1λ^6,2,5-thiadiazolidine-1,1,3-trione] | > 9.00 | 60 to 90% | < 25% | 
O=C1CN(c2c(O)cc3ccc(OCCOC4CCC4)cc3c2F)S(=O)(=O)N1 [Compound 214, 5-{7-[2-(cyclobutyloxy)ethoxy]-1-fluoro-3-hydroxynaphthalen-2-yl}-1λ^6,2,5-thiadiazolidine-1,1,3-trione] | 8.00 to 9.00 | 60 to 90% | < 25% | 
O=C1CN(c2c(O)cc3ccc(OCC4CC4)cc3c2F)S(=O)(=O)N1 [Compound 250, 5-[7-(cyclopropylmethoxy)-1-fluoro-3-hydroxynaphthalen-2-yl]-1λ^6,2,5-thiadiazolidine-1,1,3-trione] | 8.00 to 9.00 | 60 to 90% | < 25% | 
CP(C)(=O)c1ccc(-c2ccc3cc(O)c(N4CC(=O)NS4(=O)=O)c(F)c3c2)s1 [Compound 141, 5-{7-[5-(dimethylphosphoryl)thiophen-2-yl]-1-fluoro-3-hydroxynaphthalen-2-yl}-1λ^6,2,5-thiadiazolidine-1,1,3-trione] | > 9.00 | 60 to 90% | < 25% | 
CCCOc1ccc2cc(O)c(N3CC(=O)NS3(=O)=O)c(F)c2c1 [Compound 278, 5-(1-fluoro-3-hydroxy-7-propoxynaphthalen-2-yl)-1λ^6,2,5-thiadiazolidine-1,1,3-trione] | 8.00 to 9.00 | 60 to 90% | < 25% | 
O=C1CN(c2c(O)cc3ccc(C4CCNCC4)cc3c2F)S(=O)(=O)N1 [Compound 299, 5-[1-fluoro-3-hydroxy-7-(piperidin-4-yl)naphthalen-2-yl]-1λ^6,2,5-thiadiazolidine-1,1,3-trione] | 8.00 to 9.00 | > 90% | < 25% | 
O=C1CN(c2c(O)cc3ccc(OCCNCCOC(F)(F)F)cc3c2F)S(=O)(=O)N1 [Compound 137, 5-[1-fluoro-3-hydroxy-7-(2-{[2-(trifluoromethoxy)ethyl]amino}ethoxy)naphthalen-2-yl]-1λ^6,2,5-thiadiazolidine-1,1,3-trione] | 8.00 to 9.00 |  |  | 
O=C1CN(c2c(O)cc3ccc(C4CCCO4)cc3c2F)S(=O)(=O)N1 (stereo not drawn) [Compound 190] | 8.00 to 9.00 |  |  | 
CCNC(=O)NCCOc1ccc2cc(O)c(N3CC(=O)NS3(=O)=O)c(F)c2c1 [Compound 270, N-ethyl-N′-(2-{[8-fluoro-6-hydroxy-7-(1,1,4-trioxo-1λ^6,2,5-thiadiazolidin-2-yl)naphthalen-2-yl]oxy}ethyl)urea] | 8.00 to 9.00 |  |  | 
O=C1CN(c2c(O)cc3ccc(OCCCn4cccn4)cc3c2F)S(=O)(=O)N1 [Compound 183, 5-{1-fluoro-3-hydroxy-7-[3-(H-pyrazol-1-yl)propoxy]naphthalen-2-yl}-1λ^6,2,5-thiadiazolidine-1,1,3-trione] | 8.00 to 9.00 |  |  | 
CC(C)CN(C)CCOc1ccc2cc(O)c(N3CC(=O)NS3(=O)=O)c(F)c2c1 [Compound 253, 5-(1-fluoro-3-hydroxy-7-{2-[methyl(2-methylpropyl)amino]ethoxy}naphthalen-2-yl)-1λ^6,2,5-thiadiazolidine-1,1,3-trione] | 8.00 to 9.00 |  |  | 
CCNCCCc1ccc2cc(O)c(N3CC(=O)NS3(=O)=O)c(F)c2c1 [Compound 140, 5-{7-[3-(ethylamino)propyl]-1-fluoro-3-hydroxynaphthalen-2-yl}-1λ^6,2,5-thiadiazolidine-1,1,3-trione] | 8.00 to 9.00 |  |  | 
C[C@H](O)CCCc1ccc2cc(O)c(N3CC(=O)NS3(=O)=O)c(F)c2c1 [Compound 153, 5-{1-fluoro-3-hydroxy-7-[(4S)-4-hydroxypentyl]naphthalen-2-yl}-1λ^6,2,5-thiadiazolidine-1,1,3-trione] | 8.00 to 9.00 |  |  | 
O=C1CN(c2c(O)c(Br)c3ccc(C4=CCN(S(=O)(=O)C5CC5)C4)cc3c2F)S(=O)(=O)N1 [Compound 231A, 5-{4-bromo-7-[1-(cyclopropanesulfonyl)-2,5-dihydro-1H-pyrrol-3-yl]-1-fluoro-3-hydroxynaphthalen-2-yl}-1λ^6,2,5-thiadiazolidine-1,1,3-trione] | 8.00 to 9.00 |  |  | 
O=C1CN(c2c(O)cc3ccc(C4=CCN(S(=O)(=O)c5ccsc5)C4)cc3c2F)S(=O)(=O)N1 [Compound 314, 5-{1-fluoro-3-hydroxy-7-[1-(thiophene-3-sulfonyl)-2,5-dihydro-1H-pyrrol-3-yl]naphthalen-2-yl}-1λ^6,2,5-thiadiazolidine-1,1,3-trione] | > 9.00 |  |  | 
O=C1CN(c2c(O)cc3ccc(CO)cc3c2F)S(=O)(=O)N1 [Compound 185, 5-[1-fluoro-3-hydroxy-7-(hydroxymethyl)naphthalen-2-yl]-1λ^6,2,5-thiadiazolidine-1,1,3-trione] | 8.00 to 9.00 |  |  | 

Reference: patent US20210009542A1 (Calico Life Sciences LLC, priority 2018, published 2021)
